Experimental data reported in article PMC11345841, “Exploring 2-Sulfonylpyrimidine Warheads as Acrylamide Surrogates for Targeted Covalent Inhibition: A BTK Story” (Journal of Medicinal Chemistry, 2024).

What was measured:
wild-type BTK [1] = molecular target: T1, wild-type BTK (Homo sapiens, UniProt Q06187); assay: BTK in vitro activity assay (ADP-Glo, poly-Glu:Tyr phosphorylation, TCEP); conditions: for remaining activity at 0.1 µM: read-out: Remaining BTK activity (%); for inhibition at 0.1 µM: read-out: inhibition of BTK activity
T1 sequence (Q06187 whole entry): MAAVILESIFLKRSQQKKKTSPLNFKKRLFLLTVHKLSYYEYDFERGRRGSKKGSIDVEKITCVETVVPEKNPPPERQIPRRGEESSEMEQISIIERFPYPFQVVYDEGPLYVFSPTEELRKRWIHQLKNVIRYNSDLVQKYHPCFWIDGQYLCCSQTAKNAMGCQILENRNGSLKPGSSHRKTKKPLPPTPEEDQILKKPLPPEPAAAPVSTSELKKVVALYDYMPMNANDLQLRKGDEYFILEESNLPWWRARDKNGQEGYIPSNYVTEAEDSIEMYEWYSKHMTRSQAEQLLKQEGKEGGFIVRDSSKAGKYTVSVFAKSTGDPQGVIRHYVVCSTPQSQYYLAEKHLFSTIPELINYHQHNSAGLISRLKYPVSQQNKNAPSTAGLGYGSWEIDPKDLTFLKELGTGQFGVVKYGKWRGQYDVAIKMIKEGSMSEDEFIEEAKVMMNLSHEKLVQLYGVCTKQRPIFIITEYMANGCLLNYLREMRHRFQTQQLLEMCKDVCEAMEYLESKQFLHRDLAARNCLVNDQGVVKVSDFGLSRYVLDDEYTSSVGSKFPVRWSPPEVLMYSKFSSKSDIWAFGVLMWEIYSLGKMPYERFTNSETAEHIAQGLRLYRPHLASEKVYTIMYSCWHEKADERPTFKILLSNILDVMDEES

wild-type BTK [2] = molecular target: T1, wild-type BTK; assay: BTK in vitro activity assay in the presence of DTT vs TCEP (Figure S6); assay type: biochemical; conditions: 100 nM compound; 2 mM DTT instead of TCEP

| Compound | remaining activity at 0.1 µM (wild-type BTK [1]) | inhibition at 0.1 µM (wild-type BTK [1]) | BTK inhibition in the presence of DTT (wild-type BTK [2]) |
| --- | --- | --- | --- |
| CS(=O)(=O)c1ncc(C(=O)N2CCCC(n3nc(-c4ccc(Oc5ccccc5)cc4)c4c(N)ncnc43)C2)cn1 (stereo in doubt) [Compound 5e, (R)-(3-(4-Amino-3-(4-phenoxyphenyl)-1H-pyrazolo[3,4-d]pyrimidin-1-yl)piperidin-1-yl)(2-(methylsulfonyl)pyrimidin-5-yl)methanone] | 9 ± 2% | 80 to 90% | – |
| Nc1ncnc2c1c(-c1ccc(Oc3ccccc3)cc1)nn2C1CCCN(C(=O)c2cnc(S(=O)(=O)c3ccccc3)nc2)C1 (stereo in doubt) [Compound 5g, (R)-(3-(4-Amino-3-(4-phenoxyphenyl)-1H-pyrazolo[3,4-d]pyrimidin-1-yl)piperidin-1-yl)(2-(phenylsulfonyl)pyrimidin-5-yl)methanone] | 35 ± 1% | 40 to 60% | – |
| CCCCS(=O)(=O)c1nccc(C(=O)N2CCC[C@H](n3nc(-c4ccc(Oc5ccccc5)cc4)c4c(N)ncnc43)C2)n1 [Compound 5b, (3-(4-Amino-3-(4-phenoxyphenyl)-1H-pyrazolo[3,4-d]pyrimidin-1-yl)piperidin-1-yl)(2-(butylsulfonyl)pyrimidin-4-yl)methanone] | 58 ± 3% | 40 to 60% | – |
| CS(=O)(=O)c1nccc(C(=O)N2CCCC(n3nc(-c4ccc(Oc5ccccc5)cc4)c4c(N)ncnc43)C2)n1 (stereo in doubt) [Compound 5a, (R)-(3-(4-Amino-3-(4-phenoxyphenyl)-1H-pyrazolo[3,4-d]pyrimidin-1-yl)piperidin-1-yl)(2-(methylsulfonyl)pyrimidin-4-yl)methanone] | 17 ± 1% | 80 to 90% | – |
| Nc1ncnc2c1c(-c1ccc(Oc3ccccc3)cc1)nn2[C@@H]1CCCN(C(=O)c2cnc(Sc3ccccc3)nc2)C1 [Compound 4g, (R)-(3-(4-Amino-3-(4-phenoxyphenyl)-1H-pyrazolo[3,4-d]pyrimidin-1-yl)piperidin-1-yl)(2-(phenylthio)pyrimidin-5-yl)methanone] | 100 ± 6% | – | – |
| CCCCSc1nccc(C(=O)N2CCC[C@@H](n3nc(-c4ccc(Oc5ccccc5)cc4)c4c(N)ncnc43)C2)n1 [Compound 4b, (R)-(3-(4-Amino-3-(4-phenoxyphenyl)-1H-pyrazolo[3,4-d]pyrimidin-1-yl)piperidin-1-yl)(2-(butylthio)pyrimidin-4-yl)methanone] | 82 ± 1% | – | – |
| CCCCS(=O)(=O)c1ncc(C(=O)N2CCCC(n3nc(-c4ccc(Oc5ccccc5)cc4)c4c(N)ncnc43)C2)cn1 (stereo in doubt) [Compound 5f, (R)-(3-(4-Amino-3-(4-phenoxyphenyl)-1H-pyrazolo[3,4-d]pyrimidin-1-yl)piperidin-1-yl)(2-(butylsulfonyl)pyrimidin-5-yl)methanone] | 38 ± 2% | 40 to 60% | – |
| CS(=O)(=O)c1ncc(Cl)c(C(=O)N2CCCC(n3nc(-c4ccc(Oc5ccccc5)cc4)c4c(N)ncnc43)C2)n1 (stereo in doubt) [Compound 5d, (R)-(3-(4-Amino-3-(4-phenoxyphenyl)-1H-pyrazolo[3,4-d]pyrimidin-1-yl)piperidin-1-yl)(5-chloro-2-(methylsulfonyl)pyrimidin-4-yl)methanone] | 17 ± 2% | 80 to 90% | almost no inhibition |
| Nc1ncnc2c1c(-c1ccc(Oc3ccccc3)cc1)nn2[C@H]1CCCN(C(=O)c2ccnc(S(=O)(=O)c3ccccc3)n2)C1 [Compound 5c, (3-(4-Amino-3-(4-phenoxyphenyl)-1H-pyrazolo[3,4-d]pyrimidin-1-yl)piperidin-1-yl)(2-(phenylsulfonyl)pyrimidin-4-yl)methanone] | 40 ± 1% | 40 to 60% | – |
| CCCCSc1ncc(C(=O)N2CCC[C@@H](n3nc(-c4ccc(Oc5ccccc5)cc4)c4c(N)ncnc43)C2)cn1 [Compound 4f, (R)-(3-(4-Amino-3-(4-phenoxyphenyl)-1H-pyrazolo[3,4-d]pyrimidin-1-yl)piperidin-1-yl)(2-(butylthio)pyrimidin-5-yl)methanone] | 84 ± 5% | – | – |
| Nc1ncnc2c1c(-c1ccc(Oc3ccccc3)cc1)nn2[C@@H]1CCCN(C(=O)c2ccnc(Sc3ccccc3)n2)C1 [Compound 4c, (R)-(3-(4-Amino-3-(4-phenoxyphenyl)-1H-pyrazolo[3,4-d]pyrimidin-1-yl)piperidin-1-yl)(2-(phenylthio)pyrimidin-4-yl)methanone] | 98 ± 5% | – | – |
| CSc1nccc(C(=O)N2CCC[C@@H](n3nc(-c4ccc(Oc5ccccc5)cc4)c4c(N)ncnc43)C2)n1 [Compound 4a, (R)-(3-(4-Amino-3-(4-phenoxyphenyl)-1H-pyrazolo[3,4-d]pyrimidin-1-yl)piperidin-1-yl)(2-(methylthio)pyrimidin-4-yl)methanone] | 84 ± 8% | – | – |
| CSc1ncc(Cl)c(C(=O)N2CCC[C@@H](n3nc(-c4ccc(Oc5ccccc5)cc4)c4c(N)ncnc43)C2)n1 [Compound 4d, (R)-(3-(4-Amino-3-(4-phenoxyphenyl)-1H-pyrazolo[3,4-d]pyrimidin-1-yl)piperidin-1-yl)(5-chloro-2-(methylthio)pyrimidin-4-yl)methanone] | 100 ± 6% | – | – |
| CSc1ncc(C(=O)N2CCC[C@@H](n3nc(-c4ccc(Oc5ccccc5)cc4)c4c(N)ncnc43)C2)cn1 [Compound 4e, (R)-(3-(4-Amino-3-(4-phenoxyphenyl)-1H-pyrazolo[3,4-d]pyrimidin-1-yl)piperidin-1-yl)(2-(methylthio)pyrimidin-5-yl)methanone] | 83 ± 9% | – | – |

The next lines start with the values.

| remaining activity at 0.1 µM (wild-type BTK [1]) | inhibition at 0.1 µM (wild-type BTK [1]) | BTK inhibition in the presence of DTT (wild-type BTK [2]) | Compound |
| --- | --- | --- | --- |
| 69 ± 2% | – | – | CSc1ncc(N2CCCC(n3nc(-c4ccc(Oc5ccccc5)cc4)c4c(N)ncnc43)C2)c(C)n1 (stereo not drawn) [Compound 7e, 1-(1-(4-Methyl-2-(methylthio)pyrimidin-5-yl)piperidin-3-yl)-3-(4-phenoxyphenyl)-1H-pyrazolo[3,4-d]pyrimidin-4-amine] |
| 100 ± 0.2% | – | – | Nc1ncnc2c1c(-c1ccc(Oc3ccccc3)cc1)nn2[C@@H]1CCCN(C(=O)c2ccccc2)C1 [Compound 10, (R)-(3-(4-Amino-3-(4-phenoxyphenyl)-1H-pyrazolo[3,4-d]pyrimidin-1-yl)piperidin-1-yl)(phenyl)methanone] |
| 103 ± 5% | – | – | CS(=O)(=O)c1ncc(N2CCC[C@@H](n3nc(-c4ccc(Oc5ccccc5)cc4)c4c(N)ncnc43)C2)cn1 [Compound 9b, (R)-1-(1-(2-(Methylsulfonyl)pyrimidin-5-yl)piperidin-3-yl)-3-(4-phenoxyphenyl)-1H-pyrazolo[3,4-d]pyrimidin-4-amine] |
| 48 ± 0.3% | – | – | CS(=O)(=O)c1nccc(N2CCC[C@@H](n3nc(-c4ccc(Oc5ccccc5)cc4)c4c(N)ncnc43)C2)n1 [Compound 8e, (R)-1-(1-(2-(Methylsulfonyl)pyrimidin-4-yl)piperidin-3-yl)-3-(4-phenoxyphenyl)-1H-pyrazolo[3,4-d]pyrimidin-4-amine] |
| 80 ± 3% | – | – | Cc1nc(S(C)(=O)=O)ncc1N1CCCC(n2nc(-c3ccc(Oc4ccccc4)cc3)c3c(N)ncnc32)C1 (stereo not drawn) [Compound 9a, 1-(1-(4-Methyl-2-(methylsulfonyl)pyrimidin-5-yl)piperidin-3-yl)-3-(4-phenoxyphenyl)-1H-pyrazolo[3,4-d]pyrimidin-4-amine] |
| 53 ± 2% | – | – | Nc1ncnc2c1c(-c1ccc(Oc3ccccc3)cc1)nn2[C@@H]1CCCN(C(=O)c2ccncn2)C1 [Compound 12a, (R)-(3-(4-Amino-3-(4-phenoxyphenyl)-1H-pyrazolo[3,4-d]pyrimidin-1-yl)piperidin-1-yl)(pyrimidin-4-yl)methanone] |
| 76 ± 2% | – | – | COC(=O)c1cnc(SC)nc1N1CCC[C@@H](n2nc(-c3ccc(Oc4ccccc4)cc3)c3c(N)ncnc32)C1 [Compound 7b, Methyl (R)-4-(3-(4-Amino-3-(4-phenoxyphenyl)-1H-pyrazolo[3,4-d]pyrimidin-1-yl)piperidin-1-yl)-2-(methylthio)pyrimidine-5-carboxylate] |
| 105 ± 4% | – | – | CCOC(=O)c1cnc(SC)nc1N1CCC[C@@H](n2nc(-c3ccc(Oc4ccccc4)cc3)c3c(N)ncnc32)C1 [Compound 7c, Ethyl (R)-4-(3-(4-Amino-3-(4-phenoxyphenyl)-1H-pyrazolo[3,4-d]pyrimidin-1-yl)piperidin-1-yl)-2-(methylthio)pyrimidine-5-carboxylate] |
| 40 ± 0.3% | – | – | CSc1ncc(C)c(N2CCCC(n3nc(-c4ccc(Oc5ccccc5)cc4)c4c(N)ncnc43)C2)n1 (stereo not drawn) [Compound 7a, 1-(1-(5-Methyl-2-(methylthio)pyrimidin-4-yl)piperidin-3-yl)-3-(4-phenoxyphenyl)-1H-pyrazolo[3,4-d]pyrimidin-4-amine] |
| 78 ± 2% | – | – | CNC(=O)c1cnc(SC)nc1N1CCCC(n2nc(-c3ccc(Oc4ccccc4)cc3)c3c(N)ncnc32)C1 (stereo not drawn) [Compound 7d, 4-(3-(4-Amino-3-(4-phenoxyphenyl)-1H-pyrazolo[3,4-d]pyrimidin-1-yl)piperidin-1-yl)-N-methyl-2-(methylthio)pyrimidine-5-carboxamide] |
| 83 ± 7% | – | – | Nc1ncnc2c1c(-c1ccc(Oc3ccccc3)cc1)nn2[C@@H]1CCCN(C(=O)c2cncnc2)C1 [Compound 12b, (R)-(3-(4-Amino-3-(4-phenoxyphenyl)-1H-pyrazolo[3,4-d]pyrimidin-1-yl)piperidin-1-yl)(pyrimidin-5-yl)methanone] |
